According to patent US12115209B2, “ROMO1-derived antimicrobial peptides including lysine substitution and variants thereof” (KOREA UNIVERSITY RESEARCH AND BUSINESS FOUNDATION, priority 2019, dated 2024):
No end group written: not given here.

Assays:
Type in all cases: cell-based
[1] = system: Staphylococcus aureus (ATCC 29213); experiment: Minimum bactericidal concentration (MBC) assay; parameters: MBC Staphylococcus aureus: unit: µg/mL
Protocol: (§1) First, each of Pseudomonas aeruginosa (ATCC 27853) and Staphylococcus aureus (ATCC 29213) was cultured in 3% (w/v) TSB (tryptic soy broth) liquid medium at 37° C. and 200 rpm for 4 hours, and then further cultured under the same conditions for 3 hours to a concentration of 5×10^6 CFU/ml. Strain solutions were prepared by diluting each of the further cultured strains with SP (sodium phosphate; 10 mM sodium phosphate, 1% TSB) buffer to a final concentration of 2×10^5 CFU/ml.
(§2) Then, each peptide at varying concentrations (0 μg/ml to 300 μg/ml) was dispensed into each well of a 96-well microplate, and 100 μl (1×10^5 CFU/ml) of each of the prepared strain solutions was added thereto, mixed therewith, and allowed to react with the peptide in an incubator at 37° C. for 1 hour.
(§3) In addition, 30 g/L of TS (tryptic soy) and 15 g/L of agar were dissolved in distilled water and sterilized, and then 25 ml of the solution was poured onto a 100 mm round plate and solidified at room temperature for one day or more, thereby preparing a TS agar plate. 10 μl of each reaction solution of the peptide and the strain was plated on the TS agar plate at a constant size, and incubated in an incubator at 37° C. for 18 hours, and then colony formation on the plate was checked. The minimum bactericidal concentration was defined as the minimum concentration of the peptide at which no colony was formed, and the experimental results are shown in Table 1 below.

[2] = system: Pseudomonas aeruginosa (ATCC 27853); experiment: Minimum bactericidal concentration (MBC) assay; parameters: MBC Pseudomonas aeruginosa: unit: µg/mL
Protocol: as §1, §2, §3

[3] = system: Methicillin-resistant Staphylococcus aureus (MRSA, ATCC 33591); experiment: Minimum bactericidal concentration (MBC) assay; parameters: unit: µg/mL
Protocol: as §1, with “2×10^5 CFU/ml. […]” for “2×10^5 CFU/ml.”
as §3, with “checked.” for “checked. The minimum bactericidal concentration was defined as the minimum concentration of the peptide at which no colony was formed, and the experimental results are shown in Table 1 below.”
Specifically, each type of bacteria was cultured in 3% (w/v) TSB (tryptic soy broth) liquid medium at 37° C. and 200 rpm for 4 hours, and then further cultured under the same conditions for 3 hours to a concentration of 5×10^6 CFU/ml. Strain solutions were prepared by diluting each of the further cultured strains with SP buffer to a final concentration of 2×10^5 CFU/ml.
as §2, with “Then, the KU-5878” for “Then, each”
In addition, 10 μl of each reaction solution of the peptide and the strain was plated on the TS agar plate at a constant size, and incubated in an incubator at 37° C. for 18 hours, and then colony formation on the plate was checked.

CRPA = experiment: Minimum bactericidal concentration (MBC) assay; parameters: unit: µg/mL
[4] = system: Pseudomonas aeruginosa, Staphylococcus aureus, CRPA, MRSA; experiment: Increase in antibacterial activity (MBC) compared with KU-5878
[5] = mark = antibacterial activity increased compared with KU-5878

Substance	MBC Staphylococcus aureus ([1]; Tables 11-21, no unit printed)	MBC Pseudomonas aeruginosa ([2]; Tables 11-21, no unit printed)	MBC MRSA ([3]; Tables 11-21, no unit printed)	MBC CRPA (CRPA; Tables 11-21, no unit printed)	Increase in activity [4, 5]	MBC Staphylococcus aureus ([1]; Staphylococcus aureus) [µg/mL]	MBC Pseudomonas aeruginosa ([2]; Pseudomonas aeruginosa) [µg/mL]	MBC MRSA ([3]; MRSA) [µg/mL]	MBC CRPA (CRPA; CRPA) [µg/mL]	Increase in activity ([4]; compared with KU-5878)
KK-M-KGGKF-TFM-IG-GIR [d 60M 62K 68G 72A 75M]	4 µg/mL	4 µg/mL	5 µg/mL	4 µg/mL	◯					
d 58K 60M 71M 72A (MKKGGKFGTF)						15	20	20	20	◯
KKMMKKGG-FGTFMAIGMGIR [Peptide 5878-K4-d66K]	6 µg/mL	4 µg/mL	4 µg/mL	4 µg/mL	◯					
KK-MKKGGKFGTF--IGMGIR [d 60M 71M 72A]	8 µg/mL	8 µg/mL	10 µg/mL	8 µg/mL	◯					
KKMMKKGGKFG-F-AIGMGIR [Peptide K4-d69T-d71M]	10 µg/mL	10 µg/mL	12 µg/mL	12 µg/mL	◯					
KKMMKKGGKFGGFMAIGMGIR [Peptide K4-T69G]	2	2	3	2	◯					
KKMMKKGGKFG-F--IGMGIR [d 69T 71M 72A]	2 µg/mL	2 µg/mL	4 µg/mL	3 µg/mL	◯					
KTMMQSGGTFGTFMAI-MGIR [Peptide 5878-d74G]	25 µg/mL	20 µg/mL	25 µg/mL	30 µg/mL	0					
KKIIKKGGKFGTFIAIGIGIR [Peptide K4-4MI]	2	3	3	3	◯					
KKMM-KGGKFGTF-AIG-GIR [d 62K 71M 75M]	4 µg/mL	3 µg/mL	3 µg/mL	4 µg/mL	◯					
KTMMQSGG-FGTFMAIGMGIR [Peptide 5878-d66T]	90 µg/mL	90 µg/mL	90 µg/mL	100 µg/mL	0					
KKMMKKGGKFGTFMAI-MGIR [Peptide 5878-K4-d74G]	2 µg/mL	2 µg/mL	3 µg/mL	4 µg/mL	◯					
KKMMKK-GKFGTF-AIGMGIR [Peptide K4-d64G-d71M]	15 µg/mL	15 µg/mL	18 µg/mL	18 µg/mL	◯					
KKMMKKGGKFGTFMAIGMGI- [Peptide 5878-K4-78R]	10 µg/mL	4 µg/mL	4 µg/mL	8 µg/mL	◯					
KKMMKKGGTFGTFMAIGMGIR [KU-5878-K3 (T59K, Q62K, S63K)]	4 µg/mL	4 µg/mL	5 µg/mL	4 µg/mL	◯					
d 58K 64G 72A 75M (GKFGTFM)						6	6	8	8	◯
KK---KGGKFGTF-AIG-GIR [d 60M 61M 62K 71M 75M]	80 µg/mL	80 µg/mL	80 µg/mL	80 µg/mL	◯					
